Reference: patent publication US10221163B2 (priority 2015, dated 2019)
pIC50: −log10 of the molar value. Like-named read-outs stand apart in the source and are kept apart here.

Columns and labels:
[1] = system: Serratia marcescens expressing IMP-1 (CL5741); format: cell-based; conditions: with imipenem 1 μg/ml; 95% inhibition of bacterial growth
Procedure, shortened: (§1)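 Clinical isolates (E. coli NDM-1, S. marcescens IMP-1, K. pneumoniae VIM-1) were diluted 1:100 from saline suspension into 1.1×CAMHB and exposed to test compound with imipenem at 1 μg/ml. Plates were incubated at 35° C for 22 hours to 24 hours, and growth was read by absorbance.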

[2] = system: Escherichia coli expressing NDM-1 (CLB30005, CLB30016); format: cell-based; conditions: with imipenem 1 μg/ml; 95% inhibition of bacterial growth
Procedure, shortened: as §1

[3] = system: Klebsiella pneumoniae expressing VIM-1 (IHMA599644); format: cell-based; conditions: with imipenem 1 μg/ml; 95% inhibition of bacterial growth
Procedure, shortened: as §1

NDM-1 = NDM-1 (Klebsiella pneumoniae, UniProt C7C422); assay: biochemical; format: biochemical; conditions: fluorescence assay, CCF2-FA substrate, 1 pM enzyme, 2 hours at 25° C.; read-out: NDM-1 IC50
Procedure, shortened: (§2)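 Test compound, enzyme and the FRET cephalosporin substrate CCF2-FA are incubated together for 2 hours at 25° C. Cleavage is followed by fluorescence, and IC50 values are derived from semi-logarithmic inhibition curves fitted with a 4-parameter model.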

IMP-1 = IMP-1 (Serratia marcescens, UniProt P52699); assay: biochemical; format: biochemical; conditions: fluorescence assay, CCF2-FA substrate, 2 pM enzyme, 2 hours at 25° C.; read-out: IMP-1 IC50
Procedure, shortened: as §2

[4] = system: Pseudomonas aeruginosa efflux− (MB9799), IMP-1; format: cell-based; conditions: concentration restoring susceptibility to imipenem at 2 μg/mL in the presence of a class A, C, D serine β-lactamase inhibitor closely related to relebactam
Procedure, shortened: (§3)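 PAO1 pair, broth microdilution; fixed β-lactam (imipenem/ceftazidime) at ~CLSI breakpoint + fixed class A/C BLI for AmpC; serial MBLi titration; endpoint = MBLi conc. restoring susceptibility; MB9798:MB9799 ratio = efflux liability.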

VIM-1 = VIM-1 (Pseudomonas aeruginosa (strain ATCC 15692 / DSM 22644 / CIP 104116 / JCM 14847 / LMG 12228 / 1C / PRS 101 / PAO1), UniProt A0A0F7KYQ8); assay: biochemical; conditions: CCF2-FA substrate, 30 pM enzyme, 2 hours at 25° C.
Procedure, shortened: as §2

[5] = system: Pseudomonas aeruginosa MB9798 vs MB9799; conditions: ratio MITC95 PA_9798/MITC95 PA_9799
Procedure, shortened: as §3

[6] = system: Pseudomonas aeruginosa efflux+ (MB9798), IMP-1; format: cell-based; conditions: concentration restoring susceptibility to imipenem at 2 μg/mL in the presence of a class A, C, D serine β-lactamase inhibitor closely related to relebactam
Procedure, shortened: as §3

[7] = fluorescence assay, read-out: VIM-1 IC50

IMP-1, sequence (P52699 whole entry, looked up, species assumed): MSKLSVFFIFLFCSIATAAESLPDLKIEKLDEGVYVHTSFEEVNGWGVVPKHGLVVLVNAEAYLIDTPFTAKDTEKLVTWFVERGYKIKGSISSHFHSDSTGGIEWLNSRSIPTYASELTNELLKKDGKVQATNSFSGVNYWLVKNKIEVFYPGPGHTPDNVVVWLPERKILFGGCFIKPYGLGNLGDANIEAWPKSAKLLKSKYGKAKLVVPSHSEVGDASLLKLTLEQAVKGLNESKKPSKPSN
NDM-1, sequence (C7C422 whole entry, looked up, species assumed): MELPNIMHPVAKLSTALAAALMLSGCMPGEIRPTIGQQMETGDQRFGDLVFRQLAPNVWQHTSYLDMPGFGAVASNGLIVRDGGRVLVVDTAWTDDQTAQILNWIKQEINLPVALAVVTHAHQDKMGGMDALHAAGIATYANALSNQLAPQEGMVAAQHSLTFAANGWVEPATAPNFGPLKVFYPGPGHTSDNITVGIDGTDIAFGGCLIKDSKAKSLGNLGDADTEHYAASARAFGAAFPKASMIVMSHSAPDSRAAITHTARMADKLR

| Structure (SMILES) | Serratia marcescens expressing IMP-1 (CL5741) MITC95 [1] [µM] | Escherichia coli expressing NDM-1 (CLB30016) MITC95 [2] [µM] | Klebsiella pneumoniae expressing VIM-1 (IHMA599644) MITC95 [3] [µM] | pIC50 (NDM-1) | pIC50 (IMP-1) | P. aeruginosa expressing IMP-1, efflux − (MB9799) MITC95 [4] [µM] | pIC50 (VIM-1; VIM-1 IC50, fluorescence assay) | Efflux ratio [5] | P. aeruginosa expressing IMP-1, efflux + (MB9798) MITC95 [6] [µM] | pIC50 (VIM-1; [7]) |
| --- | --- | --- | --- | --- | --- | --- | --- | --- | --- | --- |
| NCCCNS(=O)(=O)c1ccc(-c2cccc3[nH]c(N)nc23)c(-c2nn[nH]n2)c1S(N)(=O)=O [Example 182, 4-(2-amino-1H-benzo[d]imidazol-4-yl)-N1-(3-aminopropyl)-3-(2H-tetrazol-5-yl)benzene-1,2-disulfonamide] | 0.5573 | 0.2578 | 0.6875 | 10.41 | 9.34 | 0.4271 | 10.04 | 0.80 | 0.3438 |  |
| Cn1c(N)nc2c(-c3ccc(S(=O)(=O)NCCCN)c(S(N)(=O)=O)c3-c3nn[nH]n3)cccc21 [Example 183, 4-(2-amino-1-methyl-1H-benzo[d]imidazol-4-yl)-N^1-(3-aminopropyl)-3-(2H-tetrazol-5-yl)benzene-1,2-disulfonamide] | 0.7813 | 0.3906 | 0.7813 | 10.27 | 9.47 | 0.7813 |  | 1.00 | 0.7813 | 9.96 |
| C[C@H](N)CNS(=O)(=O)c1ccc(-c2cccc3[nH]c(N)nc23)c(-c2nn[nH]n2)c1S(N)(=O)=O [Example 184, 4-(2-amino-1H-benzo[d]imidazol-4-yl)-N1-((S)-2-aminopropyl)-3-(2H-tetrazol-5-yl)benzene-1,2-disulfonamide] | 0.7813 | 0.3906 | 0.7813 | 10.46 | 9.17 | 0.7813 |  | 1.00 | 0.7813 | 9.72 |
| C[C@@H](N)CNS(=O)(=O)c1ccc(-c2cccc3[nH]c(N)nc23)c(-c2nn[nH]n2)c1S(N)(=O)=O [Example 185, 4-(2-amino-1H-benzo[d]imidazol-4-yl)-N1-((R)-2-aminopropyl)-3-(2H-tetrazol-5-yl)benzene-1,2-disulfonamide] | 0.7688 | 0.2135 | 1.025 | 10.32 | 9.28 | 0.5906 |  | 0.65 | 0.3844 | 9.72 |
| C[C@@H](CN)NS(=O)(=O)c1ccc(-c2cccc3[nH]c(N)nc23)c(-c2nn[nH]n2)c1S(N)(=O)=O [Example 186] | 1.563 | 0.7813 | 1.563 | 9.44 | 8.39 | 0.7813 | 9.05 | 2.00 | 1.563 |  |
| C[C@H](CN)NS(=O)(=O)c1ccc(-c2cccc3[nH]c(N)nc23)c(-c2nn[nH]n2)c1S(N)(=O)=O [Example 187, 4-(2-amino-1H-benzo[d]imidazol-4-yl)-N^1—((R)-1-aminopropan-2-yl)-3-(2H-tetrazol-5-yl)benzene-1,2-disulfonamide] | 0.7813 | 0.5859 | 1.172 | 10.67 | 9.64 | 0.7813 | 10.01 | 0.50 | 0.3906 |  |
| NC(=O)[C@H](N)CNS(=O)(=O)c1ccc(-c2cccc3[nH]c(N)nc23)c(-c2nn[nH]n2)c1S(N)(=O)=O [Example 188, (2R)-2-amino-3-(4-(2-amino-1H-benzo[d]imidazol-4-yl)-2-sulfamoyl-3-(2H-tetrazol-5-yl)phenylsulfonamido)propanamide] | 1.563 | 1.563 | 3.125 | 10.12 | 9.21 | 1.563 |  | 0.50 | 0.7813 | 9.67 |
| NC(=O)[C@@H](N)CNS(=O)(=O)c1ccc(-c2cccc3[nH]c(N)nc23)c(-c2nn[nH]n2)c1S(N)(=O)=O [Example 189, (2S)-2-amino-3-(4-(2-amino-1H-benzo[d]imidazol-4-yl)-2-sulfamoyl-3-(2H-tetrazol-5-yl)phenylsulfonamido)propanamide] | 1.563 | 0.7813 | 3.125 | 10.14 | 9.21 | 1.563 |  | 0.50 | 0.7813 | 9.67 |
| Nc1nc2c(-c3ccc(S(=O)(=O)NC[C@@H](N)CO)c(S(N)(=O)=O)c3-c3nn[nH]n3)cccc2[nH]1 [Example 190, 4-(2-amino-1H-benzo[d]imidazol-4-yl)-N1-((R)-2-amino-3-hydroxypropyl)-3-(2H-tetrazol-5-yl)benzene-1,2-disulfonamide] | 0.3906 | 0.3906 | 0.7813 | 10.23 | 9.21 | 0.7813 |  | 0.50 | 0.3906 | 9.55 |
| Nc1nc2c(-c3ccc(S(=O)(=O)NC[C@H](N)CO)c(S(N)(=O)=O)c3-c3nn[nH]n3)cccc2[nH]1 [Example 191, 4-(2-amino-1H-benzo[d]imidazol-4-yl)-N^1—((S)-2-amino-3-hydroxypropyl)-3-(2H-tetrazol-5-yl)benzene-1,2-disulfonamide] | 0.8906 | 0.25 | 0.8906 | 10.33 | 9.36 | 0.4453 |  | 1.00 | 0.4453 | 9.76 |
